Ends that are not written are not given here. Peptide text beside a SMILES is read from it. Some results are limits rather than exact numbers.

For series [1], the system named is A549. Type of series: cell-based, human. The following applies: Lung, MTT assay. The method, then:
(§1) The culture medium used for the cancer cell lines included 10% fetal bovine serum (Gibco, Grand Island, NY, USA) and 1% penicillin/streptomycin (Gibco) in 5% CO2 at 37 °C. Cells were seeded into 96-well tissue culture plates at a concentration of 1 × 10^4 cells per 200 μL per well and allowed to settle overnight. The cells were then treated with serial dilutions of various ACPs. After 48 h of incubation, cell viability for each line was assessed using the MTT colorimetric assay (Sigma-Aldrich, St. Louis, MO, USA). The peptide preparation and dilution in our anticancer assays are as follows: ACPs (10 mg) were dissolved in 100 μL of DMSO to generate 100 mg/mL stock solutions. These stock solutions were then diluted 100 times with a culture medium to obtain a 1 mg/mL solution. Finally, serial dilutions were prepared in a culture medium containing 1% DMSO to achieve the desired ACP concentrations for the MTT assay.
Background: Formazan colour is commonly taken as a measure of viable cells.

The subject of series [2] is Burkitt lymphoma-derived Daudi cell line. Type of series: cell-based, human. The following applies: MTT, 48 h. How it is done: as §1
In series [3] the test system is triple-negative breast cancer cell line MDA-MB-231. Type of series: cell-based, human. Conditions: MDA-MB-231, MTT, 48 h. How it is done: as §1
For series [4], the system named is cancer cell lines. Nature of the series: MTT colorimetric assay, panel of over 30 cancer cell lines. Type of series: cell-based, human. The following applies: 48 h. The method, then: as §1
For series [5], the system named is A431. The class given is cell-based, human. The following applies: Skin, MTT assay. How it is done:
as §1

Series [6] deals with DBTRG brain tumor cells. Type of series: cell-based. Conditions: human. How it is done:
as §1

The subject of series [7] is Hs578T. Type of series: cell-based, human. Conditions: Breast, MTT assay. An excerpt: Supplement ijms-25-06848-s001.zip/IJMS_Supplementary Table S2.xlsx, sheet "Table S2" | column: ACP1; ACP2; ACP3; ACP4; ACP5; ACP6; ACP7; ACP8; ACP9; ACP10; ACP11; ACP12
In series [8] the test system is DU145 prostate cancer. The class given is cell-based, human. The following applies: MTT, 48 h. The method, then: as §1
In series [9] the test system is HT1080 fibrosarcoma. The class given is cell-based, human. The following applies: MTT, 48 h. How it is done:
as §1

For series [10], the system named is SKOV-3 ovarian carcinoma. The class given is cell-based, human. The following applies: MTT, 48 h. How it is done: as §1
For series [11], the system named is BT474 cells. Type of series: cell-based, human. Conditions: MTT, 48 h. The method, then: as §1
Series [12] deals with HepG2. Type of series: cell-based, human. The following applies: HepG2 liver cancer cells, MTT, 48 h. The method, then: as §1
The subject of series [13] is Mahlavu. The class given is cell-based, human. Conditions: Mahlavu liver cancer cells, MTT, 48 h. How it is done:
as §1

Setting [14] is: endometrial and hypopharyngeal cancer cells.

For FKGGGPYGQGVTRGQDLSGKDF [ACP12], the “Cytotoxicity against cancer cell line A549” value in [1] is greater than 1000. The “anticancer activity, in words” value in series [2] and in series [3] was “demonstrated anticancer activity” each time.

Turning to `CC[C@H](C)[C@H](NC(=O)[C@H](CS)NC(=O)[C@@H]1CCCN1C(=O)[C@@H](NC(=O)[C@H](Cc1ccccc1)NC(=O)[C@@H](NC(=O)[C@H](CS)NC(=O)[C@H](CO)NC(=O)[C@H](CCC(=O)O)NC(=O)CNC(=O)[C@H](CS)NC(=O)[C@@H]1CCCN1C(=O)[C@@H](NC(=O)[C@@H](NC(=O)CN)C(C)C)[C@@H](C)CC)C(C)C)[C@@H](C)CC)C(=O)N[C@@H](CO)C(=O)N[C@H](C(=O)N[C@@H](CC(C)C)C(=O)N[C@@H](CC(C)C)C(=O)NCC(=O)N[C@@H](CS)C(=O)N[C@@H](CO)C(=O)N[C@@H](CS)C(=O)N[C@@H](CCCCN)C(=O)N[C@@H](CC(N)=O)C(=O)N[C@@H](CCCCN)C(=O)N[C@H](C(=O)N[C@@H](CS)C(=O)N[C@@H](Cc1ccc(O)cc1)C(=O)N[C@@H](CCCNC(=N)N)C(=O)N[C@@H](CC(N)=O)C(=O)O)C(C)C)[C@@H](C)O` [ACP6] (H-GVIPCGESCVFIPCISTLLGCSCKNKVCYRN-OH), the “anticancer effects, in words” value is recorded as “affected” in series [4] (setting [14]); “notable anticancer effects” in [4] (liver and breast cancers).

Take EQQQQQQPQNRRFRE [ACP11]: in [5], the “Cytotoxicity against cancer cell line A431” value was greater than 1000. The “Cytotoxicity against cancer cell line A549” value in series [1] is listed as greater than 1000. Besides, 32.1 µM corresponded to half-maximal inhibition in [6] (IC50). In addition, in [7], the “Cytotoxicity against cancer cell line Hs578T” value is greater than 1000.

Turning to “YKQCHKKGGHCFPKEKICIPPSSDFGKMDCRWRWKCCKKGSG (cysteines drawn unpaired) [ACP8]”, the “selective cytotoxicity, in words” value in series [8], in series [9] and in [10] was “selectively targeting” in each case.

Regarding `CC[C@H](C)[C@H](NC(=O)[C@@H]1CCCN1C(=O)[C@H](Cc1c[nH]c2ccccc12)NC(=O)[C@H](CO)NC(=O)[C@H](CS)NC(=O)[C@H](CO)NC(=O)[C@H](CS)NC(=O)CNC(=O)[C@@H]1CCCN1C(=O)[C@@H](NC(=O)[C@H](CC(N)=O)NC(=O)[C@H](CS)NC(=O)[C@@H](NC(=O)CNC(=O)CNC(=O)[C@H](Cc1ccccc1)NC(=O)[C@H](CS)NC(=O)[C@@H](NC(=O)[C@H](CCC(=O)O)NC(=O)CNC(=O)[C@H](CS)NC(=O)[C@@H](NC(=O)[C@@H](NC(=O)[C@@H]1CCCN1C(=O)[C@@H](NC(=O)[C@@H](NC(=O)[C@@H](N)CO)C(C)C)[C@@H](C)O)[C@@H](C)CC)C(C)C)[C@@H](C)O)[C@@H](C)O)[C@@H](C)O)C(=O)N[C@@H](CS)C(=O)N[C@H](C(=O)N[C@@H](CCCCN)C(=O)O)[C@@H](C)O` [ACP10] (H-SVTPIVCGETCFGGTCNTPGCSCSWPICTK-OH; N-terminus and C-terminus assumed), the “cytotoxicity, in words” value in series [11] is on record as “pronounced cytotoxicity”.

As for “KSCCPNTTGRNIYNTCRFGGGSREVCASLSGCKIISASTCPSYPDK (cysteines drawn unpaired) [ACP7]”, the “anticancer effects, in words” value is given as “affected” in series [4] (setting [14]); “notable anticancer effects” in series [4] (liver and breast cancers).

In the case of GLLGVLGSVAKHVLPHVVPVIAEHL [ACP9], the “cytotoxicity, in words” value in series [12] and in series [13] was “particularly effective” each time.

Values taken from PMC11240926, “Integrating In Silico and In Vitro Approaches to Identify Natural Peptides with Selective Cytotoxicity against Cancer Cells” (International Journal of Molecular Sciences, 2024).
